The values that follow are results of earlier work, collected in patent publication US12564579B2, “Topical formulations of (1S)-1-phenyl-2-pyridin-2-ylethanamine” (priority 2020, dated 2026).

Molecules are shown by their SMILES.

For this series the following is noted: clinical trials.

As for `N[C@@H](Cc1ccccn1)c1ccccc1` [Lanicemine, (1S)-1-phenyl-2-pyridin-2-ylethanamine], the psychotomimetic side effects result is listed as “little or no psychotomimetic side effects”. In addition, the study endpoints entry (development terminated by sponsor) is listed as “did not meet study endpoints”.
